Measured values from the NIST ThermoML archive (doi:10.1016/j.fluid.2008.06.014).
Numbers after ± are expanded uncertainties.

Conditions: Liquid, vibrating wire

CCOCC [diethyl ether]
Conditions | mass density [kg/m3] | viscosity [mPa·s]
243.15 K, 100 kPa | 768.339 ± 3.1 | 0.412 ± 0.017
243.15 K, 4360 kPa | 771.759 ± 3.1 | 0.427 ± 0.017
243.15 K, 9400 kPa | 775.801 ± 3.1 | 0.445 ± 0.018
243.15 K, 14450 kPa | 779.603 ± 3.1 | 0.463 ± 0.019
243.15 K, 19460 kPa | 783.16 ± 3.1 | 0.481 ± 0.019
253.15 K, 100 kPa | 758.413 ± 3 | 0.363 ± 0.015
253.15 K, 4440 kPa | 762.367 ± 3.1 | 0.377 ± 0.015
253.15 K, 9400 kPa | 766.683 ± 3.1 | 0.392 ± 0.016
253.15 K, 14460 kPa | 770.762 ± 3.1 | 0.408 ± 0.016
253.15 K, 19510 kPa | 774.696 ± 3.1 | 0.424 ± 0.017
263.15 K, 100 kPa | 747.885 ± 3 | 0.323 ± 0.013
263.15 K, 4390 kPa | 752.036 ± 3 | 0.335 ± 0.013
263.15 K, 9440 kPa | 756.778 ± 3 | 0.35 ± 0.014
263.15 K, 14430 kPa | 761.197 ± 3 | 0.364 ± 0.015
263.15 K, 19430 kPa | 765.357 ± 3.1 | 0.378 ± 0.015
273.15 K, 100 kPa | 736.593 ± 3 | 0.288 ± 0.012
273.15 K, 4380 kPa | 741.075 ± 3 | 0.3 ± 0.012
273.15 K, 9430 kPa | 746.224 ± 3 | 0.313 ± 0.013
273.15 K, 14470 kPa | 750.968 ± 3 | 0.326 ± 0.013
273.15 K, 19480 kPa | 755.407 ± 3 | 0.339 ± 0.014
283.15 K, 100 kPa | 725.632 ± 2.9 | 0.26 ± 0.01
283.15 K, 4390 kPa | 730.65 ± 2.9 | 0.27 ± 0.011
283.15 K, 9420 kPa | 735.997 ± 3 | 0.283 ± 0.011
283.15 K, 14500 kPa | 741.302 ± 3 | 0.294 ± 0.012
283.15 K, 19540 kPa | 746.114 ± 3 | 0.307 ± 0.012
293.15 K, 100 kPa | 714.517 ± 2.9 | 0.235 ± 0.009
293.15 K, 4380 kPa | 719.86 ± 2.9 | 0.245 ± 0.01
293.15 K, 9420 kPa | 725.825 ± 2.9 | 0.256 ± 0.01
293.15 K, 14480 kPa | 731.278 ± 2.9 | 0.268 ± 0.011
293.15 K, 19490 kPa | 736.437 ± 3 | 0.28 ± 0.011
303.15 K, 220 kPa | 702.89 ± 2.8 | 0.214 ± 0.009
303.15 K, 4380 kPa | 708.706 ± 2.8 | 0.223 ± 0.009
303.15 K, 9420 kPa | 715.312 ± 2.9 | 0.234 ± 0.009
303.15 K, 14500 kPa | 721.122 ± 2.9 | 0.245 ± 0.01
303.15 K, 19560 kPa | 726.788 ± 2.9 | 0.256 ± 0.01
313.15 K, 410 kPa | 691.21 ± 2.8 | 0.195 ± 0.008
313.15 K, 4360 kPa | 697.329 ± 2.8 | 0.203 ± 0.008
313.15 K, 9430 kPa | 704.446 ± 2.8 | 0.214 ± 0.009
313.15 K, 14520 kPa | 710.954 ± 2.9 | 0.225 ± 0.009
313.15 K, 19610 kPa | 717.082 ± 2.9 | 0.235 ± 0.009
323.15 K, 350 kPa | 678.758 ± 2.7 | 0.179 ± 0.007
323.15 K, 4380 kPa | 685.74 ± 2.8 | 0.187 ± 0.008
323.15 K, 9430 kPa | 693.587 ± 2.8 | 0.197 ± 0.008
323.15 K, 14490 kPa | 700.362 ± 2.8 | 0.209 ± 0.008
323.15 K, 19510 kPa | 707.014 ± 2.8 | 0.217 ± 0.009
333.15 K, 410 kPa | 666.408 ± 2.7 | 0.163 ± 0.007
333.15 K, 4390 kPa | 673.959 ± 2.7 | 0.172 ± 0.007
333.15 K, 9430 kPa | 682.531 ± 2.7 | 0.182 ± 0.007
333.15 K, 14470 kPa | 690.138 ± 2.8 | 0.192 ± 0.008
333.15 K, 19470 kPa | 697.082 ± 2.8 | 0.201 ± 0.008
343.15 K, 340 kPa | 653.148 ± 2.6 | 0.15 ± 0.006
343.15 K, 4390 kPa | 661.825 ± 2.7 | 0.158 ± 0.006
343.15 K, 9420 kPa | 671.37 ± 2.7 | 0.167 ± 0.007
343.15 K, 14460 kPa | 679.704 ± 2.7 | 0.178 ± 0.007
343.15 K, 19470 kPa | 687.162 ± 2.8 | 0.187 ± 0.008
353.15 K, 410 kPa | 639.678 ± 2.6 | 0.137 ± 0.006
353.15 K, 4380 kPa | 649.165 ± 2.6 | 0.146 ± 0.006
353.15 K, 9410 kPa | 659.723 ± 2.7 | 0.155 ± 0.006
353.15 K, 14440 kPa | 668.759 ± 2.7 | 0.165 ± 0.007
353.15 K, 19400 kPa | 676.864 ± 2.7 | 0.174 ± 0.007
363.15 K, 510 kPa | 625.615 ± 2.6 | 0.126 ± 0.005
363.15 K, 4380 kPa | 636.228 ± 2.6 | 0.134 ± 0.005
363.15 K, 9390 kPa | 647.821 ± 2.6 | 0.144 ± 0.006
363.15 K, 14400 kPa | 657.773 ± 2.7 | 0.153 ± 0.006
363.15 K, 19350 kPa | 666.459 ± 2.7 | 0.162 ± 0.007
373.15 K, 650 kPa | 610.791 ± 2.5 | 0.116 ± 0.005
373.15 K, 4380 kPa | 622.533 ± 2.6 | 0.124 ± 0.005
373.15 K, 9380 kPa | 635.564 ± 2.6 | 0.134 ± 0.005
373.15 K, 14400 kPa | 646.594 ± 2.6 | 0.143 ± 0.006
373.15 K, 19460 kPa | 656.28 ± 2.7 | 0.151 ± 0.006
